According to paper PMC8587047, “Synthesis and Biological Evaluation of Harmirins, Novel Harmine–Coumarin Hybrids as Potential Anticancer Agents” (Molecules, 2021):
Entries after “also recorded” stand apart in the source; their conditions may differ. Where two headings read alike, the source gives them in different places.

Columns and labels:
MCF-7 = test: MTT cytotoxicity assay, MCF-7; format: cell-based, human; conditions: for IC50: Homo sapiens, read-out: IC50 MCF-7; for SI (MCF-7): ratio IC50 HEK293T / IC50 MCF-7; for activity against MCF-7, fold stronger than 5-FU: compared with 5-FU IC50; for activity against MCF-7, fold higher than harmine: compared with harmine IC50
Text: (§1) We selected four different cancer cell lines for antiproliferative screening in vitro, which we believed would provide sufficient data on the anticancer potential of the prepared harmirins (hepatocellular carcinoma—HepG2, colorectal adenocarcinoma, Dukes’ type C—SW620, colorectal carcinoma—HCT116, and breast adenocarcinoma—MCF-7). Additionally, we included one non-cancer cell line (embryonic kidney—HEK293T) to evaluate harmirins’ selectivity. The commonly used anticancer drug 5-FU and harmine were used as positive controls. Pre-screening was performed using 50 µM of the tested compound. Only compounds that led to more than 50% reduction in mitochondrial metabolic activity at 50 µM concentration were selected for further analysis. The selectivity index (SI) for each harmirin was calculated as a fractional ratio between the IC50 values for HEK293T and the cancer cell line MCF-7 or HCT116 since these two cell lines were the most susceptible to harmirins.
(§2) The experiments were carried out on five human cell lines purchased from American Type Culture Collection (ATCC, PO BOX 1549, manassas, VA 20108, USA): HepG2 (hepatocellular carcinoma; ATCC® HB-8065™), SW620 (colorectal adenocarcinoma; ATCC® CCL-227™), HCT116 (colorectal carcinoma ATCC® CCL-247™), MCF-7 (breast adenocarcinoma, ATCC® HTB-22™), and HEK293T (embryonic kidney cells; ATCC® CRL-3216™). All cell lines were cultured as monolayers and maintained in Dulbecco’s modified Eagle medium (DMEM) (Capricorn Scientific, USA), supplemented with 10% fetal bovine serum (FBS) (Capricorn Scientific, USA), 100 U/mL penicillin, and 100 µg/mL streptomycin (Capricorn Scientific, USA) in a humidified atmosphere with 5% CO2 at 37 °C. Cells were seeded in 96-well plates (Corning, Durham, NC, USA) at 5000–7000 cells per well (depending on the cell doubling time of a specific cell line) in 0.1 mL media and cultured for 24 h. The next day, the medium was aspirated, and cells were treated for 72 h. Only the compounds that led to more than a 50% reduction in mitochondrial metabolic activity at a concentration of 50 µM were selected for further analysis. The following concentrations of selected compounds were used: 25, 10, 5, and 1 µM. Working dilutions were freshly prepared on the day of the testing. A fresh growth medium was added to untreated control cells, which were defined as 100% viable. DMSO (0.13%) in DMEM was considered a negative control. 5-Fluorouracil (5-FU) and harmine were used as positive controls. At the end of treatment, media was removed, and cells were incubated for 1 h with 0.5 mg/mL MTT (Abcam, Cambridge, MA, USA) dissolved in serum-deprived DMEM. The absorbance was directly proportional to cell viability. The MTT-containing media was then removed, and 0.1 mL isopropanol was added per well to lyse cells and dissolve formazan. The optical density was measured at 570 nm using a microplate reader (VICTOR3, PerkinElmer). Each test point was performed in triplicate. The IC50 values (concentration required to decrease viability by 50%) were calculated by using nonlinear regression on the sigmoidal dose–response plots and are expressed as mean ± SD.

HepG2 = test: MTT cytotoxicity assay, HepG2; format: cell-based; conditions: Homo sapiens, read-out: IC50 HepG2
Text: as §1, §2

SW620 = test: MTT cytotoxicity assay, SW620; format: cell-based; conditions: Homo sapiens, read-out: IC50 SW620
Text: as §1, §2

HEK293T = test: MTT cytotoxicity assay, HEK293T (non-cancer); format: cell-based, human; conditions: for IC50: Homo sapiens, HEK-293T, 72 h, read-out: IC50 Hek293T
Text: as §1, §2

HCT116 = test: MTT cytotoxicity assay, HCT116; format: cell-based, human; conditions: for IC50: Homo sapiens, read-out: IC50 HCT116; for SI (HCT116): ratio IC50 HEK293T / IC50 HCT116
Text: as §1, §2

MCF-7 cells [1] = test: Cell cycle analysis by flow cytometry (PI); format: cell-based, human; conditions: harmine 20 µM; for accumulation of cells in the subG1 phase (apoptotic cells) / effect on G1 phase of cell cycle / effect on percentage of cells in S phase: 12b 10 µM; for accumulation of cells in the subG1 phase (apoptotic cells): 48 h, data not shown; for effect on G1 phase of cell cycle / effect on percentage of cells in S phase: after 24 h (12b: persisted after 48 h)
Description: To gain further insight into the potential mechanism of activity of 12b, and to examine whether and how the cell growth inhibition was associated with cell cycle regulation, we assessed its influence on the cell cycle of MCF-7 cells, 24 and 48 h after the treatment and compared it with the influence of the reference compound harmine (Figure 4).
MCF-7 cells were seeded onto 6-well plates (3 × 10^5 cells per well). After 24 h, 12b was added at 10 µM concentration and harmine at 20 µM concentration. After 24 h or 48 h, the attached cells were trypsinized, combined with floating cells, washed with phosphate buffer saline (PBS), fixed with 70% ethanol, and stored at −20 °C. Immediately before analysis, the cells were washed with PBS and stained with 50 μg/mL of propidium iodide (PI) with the addition of 0.1 μg/μL of RNAse A. The stained cells were then analyzed by BD FACScalibur flow cytometer (20,000 counts were measured). The percentage of cells in each cell cycle phase was determined using FlowJo software (TreeStar Inc., USA). The tests were performed in duplicate and repeated in three separate experiments.

HGC-27 = tested on: HGC-27; parameters: method as in PMID 26657602; conditions: read-out: IC50 against HGC-27; cited from earlier work
HT-29 = tested on: HT-29; parameters: method as in PMID 26657602; conditions: read-out: IC50 against HT-29; cited from earlier work
MCF-7 cells [2] = test: Cell localization by fluorescence microscopy; format: cell-based, human; conditions: 10 µM, 30 min, MCF-7, DAPI filter
Description: We further examined the intracellular distribution of the compound 12b in MCF-7 cells, based on its fluorescence properties. Therefore, we incubated MCF-7 cells for 30 min with the tested compound 12b and analyzed its localization by fluorescence microscopy (Figure 3). No autofluorescence was detected by examining untreated cells under typical imaging conditions.
The MCF-7 cells were seeded on round microscopic coverslips placed in 24-well-plates (5 × 10^4 cells per well) and grown at 37 °C and 5% CO2 for 24 h in DMEM supplemented with FBS, penicillin, and streptomycin, as described above. Cells were then incubated with compound 12b (10 µM) for 30 min. Afterward, the medium was discharged, coverslips rinsed twice with PBS, placed on the microscopic slides, and immediately analyzed. The uptake and intracellular distribution of the tested derivative were analyzed under a fluorescence microscope (Olympus BX51) at 400 × magnification, using a DAPI filter. Images were captured with an Olympus DP70 Digital Camera.

HeLa = tested on: HeLa; parameters: method as in doi:10.1002/slct.201601020; conditions: read-out: GI50 against HeLa; cited from earlier work
[3] = MTT, mean ± SD, non-cancer cell line

Structure (SMILES) | SI (MCF-7) (MCF-7) | SI (HCT116) (HCT116) | IC50 (MCF-7; MCF7, MTT, 72 h, mean ± SD) | activity against MCF-7, fold stronger than 5-FU (MCF-7) | activity against MCF-7, fold higher than harmine (MCF-7) | IC50 (HepG2; HepG2, MTT, 72 h, mean ± SD) | IC50 (SW620; SW-620, MTT, 72 h, mean ± SD) | melting point | IC50 (HEK293T; [3]) | IC50 (HCT116; HCT-116, MTT, 72 h, mean ± SD) | further results
COc1ccc2c(c1)[nH]c1c(C)nccc12 [HAR, harmine] | 0.9 | 3.2 | – | – | – | – | – | – | – | – | IC50 (MCF-7; MCF7, 72 h): 13.5 ± 1.1 µM; IC50 (HepG2; HepG2, 72 h): 18.7 ± 0.8 µM; IC50 (SW620; SW-620, 72 h): 4.7 ± 0.6 µM; IC50 (HEK293T): 12.6 ± 0.8 µM; IC50 (HCT116; HCT-116, 72 h): 4 ± 0.8 µM; accumulation of cells in the subG1 phase (apoptotic cells) (MCF-7 cells [1]): ≤ 15%; effect on G1 phase of cell cycle (MCF-7 cells [1]): G1 delay; effect on percentage of cells in S phase (MCF-7 cells [1]): reduction in cells in the S phase; effect on G2/M phase of cell cycle (MCF-7 cells [1]; after 48 h): additional accumulation of cells in the G2/M phase
COc1cc(-c2nc(Cn3cc(CN4C(=O)c5ccc(C)cc5C4=O)nn3)cc3c2[nH]c2ccccc23)cc(OC)c1OC [β-carboline–triazole hybrid] | – | – | – | – | – | – | – | – | – | – | IC50 (HGC-27): 5.44 µM; IC50 (HT-29): 3.67 µM
Cc1ccc2oc(=O)cc(-n3cc(COc4ccc5c(c4)[nH]c4c(C)nccc45)nn3)c2c1 [12b, 6-Methyl-4-(4-(((1-methyl-9H-pyrido[3,4-b]indol-7-yl)oxy)methyl)-1H-1,2,3-triazol-1-yl)-2H-chromen-2-one] | >7.2 | >10.6 | 6.9 ± 0.7 µM | 3.4 fold | twofold | 19.5 ± 1.5 µM | 20.8 ± 0.4 µM | 225.5 to 229.5 °C (dec.) | > 50 µM | 4.7 ± 0.6 µM | intracellular distribution (MCF-7 cells [2]): predominantly cytoplasmic distribution; also recorded: localized exclusively in the cytoplasm; also recorded: localization within the cytoplasm, but not within the nucleus; SIs (selectivity towards cancer cells in comparison to HEK293T) (HEK293T; cancer cell line not specified (MCF-7 or HCT116)): > 7.2; accumulation of cells in the subG1 phase (apoptotic cells) (MCF-7 cells [1]): up to 10%; effect on G1 phase of cell cycle (MCF-7 cells [1]): strong G1 arrest; effect on percentage of cells in S phase (MCF-7 cells [1]): reduced the percentage of cells in the S phase; also recorded: drastic reduction in the percentage of cells in the S phase
Cc1ccc2oc(=O)cc(OCc3cn(Cc4nccc5c4[nH]c4ccccc45)nn3)c2c1 [4b, 4-((1-((9H-Pyrido[3,4-b]indol-1-yl)methyl)-1H-1,2,3-triazol-4-yl)methoxy)-6-methyl-2H-chromen-2-one] | 0.7 | <0.5 | 35.7 ± 1 µM | – | – | 27.3 ± 1.2 µM | > 50 µM | 246.5 to 251 °C (dec.) | 26 ± 1 µM | > 50 µM | –
Cc1nccc2c1[nH]c1ccc(OCc3cn(-c4cc(=O)oc5ccc(F)cc45)nn3)cc12 [11d, 6-Fluoro-4-(4-(((1-methyl-9H-pyrido[3,4-b]indol-6-yl)oxy)methyl)-1H-1,2,3-triazol-1-yl)-2H-chromen-2-one] | – | – | 1.9 ± 0.2 µM | 9–13 fold | 5–7 fold | 14.2 ± 0.4 µM | 12.7 ± 1.8 µM | 224.5 to 225.5 °C (dec.) | 6.9 ± 0.6 µM | 2.7 ± 0.4 µM | –
O=c1cc(-c2nccc3c2[nH]c2ccccc23)c2cc(Cl)ccc2o1 [coumarin–β-carboline hybrid] | – | – | – | – | – | – | – | – | – | – | GI50 (HeLa): 67.5 µM
COc1ccc2c3ccnc(C)c3n(Cc3cn(-c4cc(=O)oc5ccc(C)cc45)nn3)c2c1 [13b, 4-(4-((7-Methoxy-1-methyl-9H-pyrido[3,4-b]indol-9-yl)methyl)-1H-1,2,3-triazol-1-yl)-6-methyl-2H-chromen-2-one] | >1 | >1 | > 50 µM | – | – | > 50 µM | > 50 µM | 253 to 255 °C (dec.) | > 50 µM | > 50 µM | –
COc1ccc2c3ccnc(C)c3n(Cc3cn(-c4cc(=O)oc5ccccc45)nn3)c2c1 [13a, 4-(4-((7-Methoxy-1-methyl-9H-pyrido[3,4-b]indol-9-yl)methyl)-1H-1,2,3-triazol-1-yl)-2H-chromen-2-one] | 0.4 | 3.6 | 34 ± 2.1 µM | – | – | 19.6 ± 1.3 µM | > 50 µM | 239 to 243.5 °C (dec.) | 12.4 ± 1.1 µM | 3.4 ± 0.6 µM | –
Cc1nccc2c1[nH]c1ccc(OCc3cn(-c4cc(=O)oc5ccccc45)nn3)cc12 [11a, 4-(4-(((1-Methyl-9H-pyrido[3,4-b]indol-6-yl)oxy)methyl)-1H-1,2,3-triazol-1-yl)-2H-chromen-2-one] | 3 | 2 | 2.2 ± 0.2 µM | 9–13 fold | 5–7 fold | 6.4 ± 0.2 µM | 8.4 ± 0.3 µM | 235.5 to 238 °C (dec.) | 6.4 ± 0.2 µM | 3.3 ± 0.4 µM | –
